Here are results for one compound from US10138244B2, “Triazolopyrazinone derivative useful as a human PDE1 inhibitor” (Eli Lilly and Company, priority 2016, dated 2018).

Holding throughout (type): biochemical
For test [1], the target named is T1, human PDE11A (Homo sapiens, UniProt Q9HCR9).
T1 construct: full-length human PDE8A (NP_002596.1) and PDE11A (AAI12394.1); Flag (N); made in house; host or cells: Sf9 (baculovirus, pFastBac1)
Briefly: PDE enzyme assay using [3H]cGMP as substrate (SPA), PDE11A. Particulars: human PDE11A 0.03 nM, [3H]cGMP 80 nM. From the text: (§1) The nucleotide sequences encoding full-length human PDE1A (NP_001003683.1), PDE1C (NP_005011.1), PDE5A (NP_001074.2), PDE7B (NP_061818.1) and PDE9A (NP_002597.1) are inserted into pFastBac1 (Invitrogen) vector with an N-terminal HIS tag. The nucleotide sequences encoding full-length human PDE4D (NP_006194.2) and catalytic domain (residue 641-1141) of PDE3A (NP_000912.3) are inserted into pFastBac1 (Invitrogen) vector with a C-terminal HIS tag. The nucleotide sequences encoding full-length human PDE8A (NP_002596.1) and PDE11A (AAI12394.1) are inserted into pFastBac1 (Invitrogen) vector with an N-terminal Flag tag. The nucleotide sequences encoding full-length human PDE10A (AAD32595.1) are inserted into pFastBac1 (Invitrogen) vector with a C-terminal Flag-His tag. […]
(§2) All 3′, 5′ cyclic nucleotide phosphodiesterase (PDE) enzyme activities are measured with a radiometric enzyme assay based on SPA detection system (scintillation proximity assay). […] Samples are read 12 hours later in a MICROBETA™ TRILUX® Counter. […] IC50 values are calculated by plotting the normalized data vs. log [compound] and fitting the data using a four parameter logistic equation.
(§3) The following phosphodiesterase activities are measured using [^3H]cGMP as reaction substrate: human PDE2A, human PDE5A, human PDE6A/6B, human PDE9A, human PDE10A and human PDE11A. […]

Test [2] addresses T2, human PDE2A (Homo sapiens, UniProt O00408).
T2 construct: full-length human PDE1B (NP_000915.1) and PDE2A (NP_002590.1); HIS (C); made in house; host or cells: Sf9 (pIEX4)
In words: PDE enzyme assay using [3H]cGMP as substrate (SPA), PDE2A. To be noted: human PDE2A 0.2 nM, [3H]cGMP 80 nM.
Text: as §1, §2, §3

For test [3], the target named is T3, human PDE1B (Homo sapiens, UniProt Q01064).
T3 construct: encoding full-length human PDE1B (NP_000915.1); HIS (C); made in house; host or cells: Sf9 (pIEX4)
Briefly: Ca2+-calmodulin dependent PDE enzyme assay (SPA), PDE1B. To be noted: human PDE1B 0.074 nM, [3H]cAMP 47 nM, calmodulin 6 U/ml; read-out: IC50 (nM) PDE 1B. The text has this:
(§4) The nucleotide sequences encoding full-length human PDE1A (NP_001003683.1), PDE1C (NP_005011.1), PDE5A (NP_001074.2), PDE7B (NP_061818.1) and PDE9A (NP_002597.1) are inserted into pFastBac1 (Invitrogen) vector with an N-terminal HIS tag. The nucleotide sequences encoding full-length human PDE4D (NP_006194.2) and catalytic domain (residue 641-1141) of PDE3A (NP_000912.3) are inserted into pFastBac1 (Invitrogen) vector with a C-terminal HIS tag. The nucleotide sequences encoding full-length human PDE8A (NP_002596.1) and PDE11A (AAI12394.1) are inserted into pFastBac1 (Invitrogen) vector with an N-terminal Flag tag. The nucleotide sequences encoding full-length human PDE10A (AAD32595.1) are inserted into pFastBac1 (Invitrogen) vector with a C-terminal Flag-His tag. The nucleotide sequences encoding full-length human PDE6A (NP_000431.2) and PDE6B (AAH00249.1) are inserted into pFastBacDual (Invitrogen) vector with an N-terminal HIS tag and N-terminal Flag tag, respectively, for production of PDE6A/6B dimer. […]
(§5) All 3′, 5′ cyclic nucleotide phosphodiesterase (PDE) enzyme activities are measured with a radiometric enzyme assay based on SPA detection system (scintillation proximity assay). […] Samples are read 12 hours later in a MICROBETA™ TRILUX® Counter. […] IC50 values are calculated by plotting the normalized data vs. log [compound] and fitting the data using a four parameter logistic equation. […]

Test [4] addresses T4, human PDE6A/6B (Homo sapiens, UniProt P16499+P35913).
T4 construct: encoding full-length human PDE6A (NP_000431.2) and PDE6B (AAH00249.1); HIS (N); Flag (N); made in house; host or cells: Sf9 (baculovirus, pFastBacDual)
Briefly: PDE enzyme assay using [3H]cGMP as substrate (SPA), PDE6A/6B dimer. To be noted: human PDE6AB dimer 5 nM, [3H]cGMP 80 nM; read-out: IC50 (nM) PDE 6AB.
Text: as §1, §2, §3

In test [5] the target is T5, human PDE10A (Homo sapiens, UniProt Q9Y233).
T5 construct: encoding full-length human PDE10A (AAD32595.1); Flag-His (C); made in house; host or cells: Sf9 (baculovirus, pFastBac1)
Briefly: PDE enzyme assay using [3H]cGMP as substrate (SPA), PDE10A. Particulars: human PDE10A 0.03 nM, [3H]cGMP 80 nM.
Text: as §1, §2, §3

In test [6] the target is T6, human PDE1A (Homo sapiens, UniProt P54750).
T6 construct: encoding full-length human PDE1A (NP_001003683.1); HIS (N); made in house; host or cells: Sf9 (baculovirus, pFastBac1)
In words: Ca2+-calmodulin dependent PDE enzyme assay (SPA), PDE1A. Particulars: human PDE1A 0.25 nM, [3H]cAMP 47 nM, calmodulin 6 U/ml; read-out: IC50 (nM) PDE 1A.
Text: as §4, §5

The target in test [7] is T7, human PDE9A (Homo sapiens, UniProt O76083).
T7 construct: full-length human PDE1A (NP_001003683.1), PDE1C (NP_005011.1), PDE5A (NP_001074.2), PDE7B (NP_061818.1) and PDE9A (NP_002597.1); HIS (N); made in house; host or cells: Sf9 (baculovirus, pFastBac1)
T7 sequence (O76083 whole entry): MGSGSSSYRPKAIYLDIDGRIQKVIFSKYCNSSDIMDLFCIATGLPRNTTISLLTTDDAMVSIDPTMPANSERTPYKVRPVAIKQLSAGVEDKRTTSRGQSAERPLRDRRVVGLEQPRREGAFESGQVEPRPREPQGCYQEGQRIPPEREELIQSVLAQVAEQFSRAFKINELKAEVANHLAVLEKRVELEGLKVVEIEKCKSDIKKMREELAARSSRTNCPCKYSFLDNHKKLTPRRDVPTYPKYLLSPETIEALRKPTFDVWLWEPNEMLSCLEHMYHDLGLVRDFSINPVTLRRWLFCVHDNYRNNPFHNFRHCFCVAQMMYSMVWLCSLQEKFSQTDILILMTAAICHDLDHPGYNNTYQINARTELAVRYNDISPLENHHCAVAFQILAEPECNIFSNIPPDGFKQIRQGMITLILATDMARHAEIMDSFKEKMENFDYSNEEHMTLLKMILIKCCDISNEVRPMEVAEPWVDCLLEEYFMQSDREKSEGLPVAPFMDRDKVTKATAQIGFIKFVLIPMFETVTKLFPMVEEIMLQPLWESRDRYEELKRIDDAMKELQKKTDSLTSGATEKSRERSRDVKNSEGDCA
In words: PDE enzyme assay using [3H]cGMP as substrate (SPA), PDE9A. Particulars: human PDE9A 1 nM, [3H]cGMP 20 nM.
Text: as §1, §2, §3

For test [8], the target named is T8, human PDE5A (Homo sapiens, UniProt O76074).
T8 construct: full-length human PDE1A (NP_001003683.1), PDE1C (NP_005011.1), PDE5A (NP_001074.2); HIS (N); made in house; host or cells: Sf9 (baculovirus, pFastBac1)
In words: PDE enzyme assay using [3H]cGMP as substrate (SPA), PDE5A. To be noted: human PDE5A 0.002 nM, [3H]cGMP 80 nM.
Text: as §1, §2, §3

Test [9] has as its target T9, human PDE8A (Homo sapiens, UniProt O60658).
T9 construct: encoding full-length human PDE8A (NP_002596.1); Flag (N); made in house; host or cells: Sf9 (baculovirus, pFastBac1)
In words: PDE enzyme assay using [3H]cAMP as substrate (SPA), PDE8A. Particulars: human PDE8A 0.06 nM, [3H]cAMP 47 nM.
Text: as §1, §2
(§6) The following phosphodiesterase activities are measured using [^3H]cAMP as reaction substrate: human PDE3A (catalytic domain), human PDE4D, human PDE7B and human PDE8A. […]

The target of test [10] is T10, human PDE4D (Homo sapiens, UniProt Q08499).
T10 construct: encoding full-length human PDE4D (NP_006194.2); HIS (C); made in house; host or cells: Sf9 (baculovirus, pFastBac1)
T10 sequence (Q08499 1-673 isoform Q08499-2): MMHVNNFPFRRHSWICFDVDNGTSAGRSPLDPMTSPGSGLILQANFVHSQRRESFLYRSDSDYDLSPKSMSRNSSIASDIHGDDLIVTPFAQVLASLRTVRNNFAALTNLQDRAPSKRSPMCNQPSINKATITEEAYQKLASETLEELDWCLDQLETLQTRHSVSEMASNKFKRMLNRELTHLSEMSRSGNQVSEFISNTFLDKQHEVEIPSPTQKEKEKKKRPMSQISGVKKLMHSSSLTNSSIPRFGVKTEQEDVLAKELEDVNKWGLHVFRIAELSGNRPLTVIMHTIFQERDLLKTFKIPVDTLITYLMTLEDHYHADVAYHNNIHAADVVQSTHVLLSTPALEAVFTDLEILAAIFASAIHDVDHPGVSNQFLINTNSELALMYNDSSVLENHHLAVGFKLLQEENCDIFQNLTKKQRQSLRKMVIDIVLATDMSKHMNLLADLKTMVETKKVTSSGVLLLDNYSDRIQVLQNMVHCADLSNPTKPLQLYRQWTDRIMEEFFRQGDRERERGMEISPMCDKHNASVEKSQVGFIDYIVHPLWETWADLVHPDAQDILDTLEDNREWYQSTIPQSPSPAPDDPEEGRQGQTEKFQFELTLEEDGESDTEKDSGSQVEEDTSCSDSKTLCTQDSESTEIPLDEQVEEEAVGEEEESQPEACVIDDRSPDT
Briefly: PDE enzyme assay using [3H]cAMP as substrate (SPA), PDE4D. Particulars: human PDE4D 0.021 nM, [3H]cAMP 47 nM.
Text: as §1, §2, §6

For test [11], the target named is T11, human PDE1C (Homo sapiens, UniProt Q14123).
T11 construct: full-length human PDE1A (NP_001003683.1), PDE1C (NP_005011.1); HIS (N); made in house; host or cells: Sf9 (baculovirus, pFastBac1)
Briefly: Ca2+-calmodulin dependent PDE enzyme assay (SPA), PDE1C. To be noted: human PDE1C 0.0012 nM, [3H]cAMP 47 nM, calmodulin 6 U/ml; read-out: IC50 (nM) PDE 1C.
Text: as §4, §5

Test [12] deals with T12, human PDE3A (catalytic domain) (Homo sapiens, UniProt Q14432).
T12 construct: catalytic domain (residue 641-1141) of PDE3A (NP_000912.3); HIS (C); made in house; host or cells: Sf9 (baculovirus, pFastBac1)
T12 sequence (Q14432 641-1141): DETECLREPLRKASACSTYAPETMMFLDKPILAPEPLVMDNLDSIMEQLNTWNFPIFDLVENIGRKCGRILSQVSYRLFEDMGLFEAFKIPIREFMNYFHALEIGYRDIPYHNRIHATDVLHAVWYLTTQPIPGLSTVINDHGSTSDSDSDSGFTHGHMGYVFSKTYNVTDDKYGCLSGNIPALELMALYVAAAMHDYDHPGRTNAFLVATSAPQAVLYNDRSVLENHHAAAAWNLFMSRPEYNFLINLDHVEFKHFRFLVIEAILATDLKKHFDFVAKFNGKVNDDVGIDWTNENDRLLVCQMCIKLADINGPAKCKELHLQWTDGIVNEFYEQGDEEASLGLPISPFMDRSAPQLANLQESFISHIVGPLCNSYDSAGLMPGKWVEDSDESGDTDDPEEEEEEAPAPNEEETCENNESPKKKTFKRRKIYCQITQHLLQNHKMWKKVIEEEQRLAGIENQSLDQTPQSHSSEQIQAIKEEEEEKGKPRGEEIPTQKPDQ
Briefly: PDE enzyme assay using [3H]cAMP as substrate (SPA), PDE3A. Particulars: human PDE3A catalytic domain 0.008 nM, [3H]cAMP 47 nM.
Text: as §1, §2, §6

For test [13], the target named is T13, human PDE7B (Homo sapiens, UniProt Q9NP56).
T13 construct: full-length human PDE1A (NP_001003683.1), PDE1C (NP_005011.1), PDE5A (NP_001074.2), PDE7B (NP_061818.1); HIS (N); made in house; host or cells: Sf9 (baculovirus, pFastBac1)
T13 sequence (Q9NP56 whole entry): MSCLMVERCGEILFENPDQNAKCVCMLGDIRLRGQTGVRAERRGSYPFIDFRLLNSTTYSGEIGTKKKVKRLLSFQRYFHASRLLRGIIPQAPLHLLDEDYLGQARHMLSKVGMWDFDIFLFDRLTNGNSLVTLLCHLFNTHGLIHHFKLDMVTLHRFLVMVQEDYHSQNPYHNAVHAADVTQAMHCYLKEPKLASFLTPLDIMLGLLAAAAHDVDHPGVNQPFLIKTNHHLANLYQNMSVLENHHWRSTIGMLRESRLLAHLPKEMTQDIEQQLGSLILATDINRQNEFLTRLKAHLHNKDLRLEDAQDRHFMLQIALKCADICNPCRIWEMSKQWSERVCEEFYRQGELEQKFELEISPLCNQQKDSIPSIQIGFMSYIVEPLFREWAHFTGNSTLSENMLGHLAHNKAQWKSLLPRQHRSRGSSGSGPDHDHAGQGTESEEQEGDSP
Briefly: PDE enzyme assay using [3H]cAMP as substrate (SPA), PDE7B. To be noted: human PDE7B 0.5 nM, [3H]cAMP 47 nM.
Text: as §1, §2, §6

T1 sequence (Q9HCR9 whole entry): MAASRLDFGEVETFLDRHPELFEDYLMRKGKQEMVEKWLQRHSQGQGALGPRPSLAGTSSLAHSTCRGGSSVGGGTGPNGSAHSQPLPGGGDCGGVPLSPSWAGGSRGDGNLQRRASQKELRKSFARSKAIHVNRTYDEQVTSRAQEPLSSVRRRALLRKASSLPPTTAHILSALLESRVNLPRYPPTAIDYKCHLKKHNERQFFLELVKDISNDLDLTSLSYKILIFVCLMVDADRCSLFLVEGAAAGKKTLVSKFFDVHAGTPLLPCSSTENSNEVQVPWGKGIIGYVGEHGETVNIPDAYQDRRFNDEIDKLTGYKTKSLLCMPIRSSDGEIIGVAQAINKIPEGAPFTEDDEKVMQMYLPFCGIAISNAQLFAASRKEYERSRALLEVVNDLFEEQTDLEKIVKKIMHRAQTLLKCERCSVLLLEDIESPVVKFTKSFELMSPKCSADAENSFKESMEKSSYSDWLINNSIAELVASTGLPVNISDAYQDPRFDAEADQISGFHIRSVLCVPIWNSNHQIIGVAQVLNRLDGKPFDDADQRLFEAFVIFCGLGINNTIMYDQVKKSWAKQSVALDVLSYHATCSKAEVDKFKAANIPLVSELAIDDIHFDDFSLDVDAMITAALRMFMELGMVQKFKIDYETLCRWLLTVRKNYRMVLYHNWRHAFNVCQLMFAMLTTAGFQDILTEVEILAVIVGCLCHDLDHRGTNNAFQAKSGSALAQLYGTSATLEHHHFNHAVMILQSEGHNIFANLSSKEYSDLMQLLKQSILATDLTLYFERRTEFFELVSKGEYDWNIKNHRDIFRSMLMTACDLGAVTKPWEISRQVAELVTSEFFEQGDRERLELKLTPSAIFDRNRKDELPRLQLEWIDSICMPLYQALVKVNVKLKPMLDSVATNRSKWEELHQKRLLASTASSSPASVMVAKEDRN
T9 sequence (O60658 whole entry): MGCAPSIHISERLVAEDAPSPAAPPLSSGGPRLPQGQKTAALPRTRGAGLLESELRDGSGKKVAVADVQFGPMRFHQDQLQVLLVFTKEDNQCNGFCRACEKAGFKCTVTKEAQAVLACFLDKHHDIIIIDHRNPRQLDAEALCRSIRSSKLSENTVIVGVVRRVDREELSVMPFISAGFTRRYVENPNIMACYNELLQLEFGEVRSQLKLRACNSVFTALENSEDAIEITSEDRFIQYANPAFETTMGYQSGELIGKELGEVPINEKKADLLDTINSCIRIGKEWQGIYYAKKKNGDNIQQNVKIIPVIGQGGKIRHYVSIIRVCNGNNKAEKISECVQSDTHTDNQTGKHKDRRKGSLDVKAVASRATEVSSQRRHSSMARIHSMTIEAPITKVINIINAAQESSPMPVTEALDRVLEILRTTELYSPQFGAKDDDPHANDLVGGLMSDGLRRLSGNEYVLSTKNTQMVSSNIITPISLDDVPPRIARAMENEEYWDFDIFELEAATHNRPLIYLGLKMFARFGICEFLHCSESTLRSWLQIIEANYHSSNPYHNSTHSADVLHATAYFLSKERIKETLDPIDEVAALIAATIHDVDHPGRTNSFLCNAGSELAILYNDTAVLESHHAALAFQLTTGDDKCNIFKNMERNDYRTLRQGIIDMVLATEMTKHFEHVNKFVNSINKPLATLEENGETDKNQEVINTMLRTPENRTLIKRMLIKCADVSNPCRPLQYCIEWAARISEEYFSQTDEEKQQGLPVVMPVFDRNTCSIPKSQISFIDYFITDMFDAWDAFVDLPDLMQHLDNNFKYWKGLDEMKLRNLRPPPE
T2 sequence (O00408 whole entry): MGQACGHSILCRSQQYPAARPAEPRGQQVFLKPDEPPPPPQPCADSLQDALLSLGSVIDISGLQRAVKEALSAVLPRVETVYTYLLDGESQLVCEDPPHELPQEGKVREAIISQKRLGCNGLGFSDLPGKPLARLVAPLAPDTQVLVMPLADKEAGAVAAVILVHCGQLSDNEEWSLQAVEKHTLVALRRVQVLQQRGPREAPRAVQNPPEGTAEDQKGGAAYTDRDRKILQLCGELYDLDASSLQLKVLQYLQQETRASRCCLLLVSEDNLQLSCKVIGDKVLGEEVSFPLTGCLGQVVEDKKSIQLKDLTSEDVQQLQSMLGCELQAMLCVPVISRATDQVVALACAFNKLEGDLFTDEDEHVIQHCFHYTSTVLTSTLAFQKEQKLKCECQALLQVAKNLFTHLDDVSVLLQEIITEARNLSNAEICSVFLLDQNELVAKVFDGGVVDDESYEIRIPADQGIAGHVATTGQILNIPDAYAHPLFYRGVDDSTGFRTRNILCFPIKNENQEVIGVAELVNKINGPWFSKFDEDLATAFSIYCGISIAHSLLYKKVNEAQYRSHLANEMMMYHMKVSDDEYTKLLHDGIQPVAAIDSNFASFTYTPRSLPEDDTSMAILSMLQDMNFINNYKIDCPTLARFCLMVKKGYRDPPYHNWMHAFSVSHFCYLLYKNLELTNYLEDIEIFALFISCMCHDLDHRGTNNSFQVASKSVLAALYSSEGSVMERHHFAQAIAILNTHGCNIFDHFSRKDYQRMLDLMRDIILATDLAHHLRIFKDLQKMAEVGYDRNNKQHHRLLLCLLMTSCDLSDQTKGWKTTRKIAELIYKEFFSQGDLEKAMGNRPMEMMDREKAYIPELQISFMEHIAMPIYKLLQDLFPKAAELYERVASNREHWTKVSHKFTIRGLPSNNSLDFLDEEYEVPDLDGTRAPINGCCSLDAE

In the case of `CCCCn1c(=O)c2nnc(C3(C)CC3)n2c2ncccc21` [Example 1, 5-butyl-9-(1-methylcyclopropyl)pyrido[3,2-e][1,2,4]triazolo[4,3-a]pyrazin-6(5H)-one], the IC50 (as a rule, the midpoint of a concentration-inhibition curve) in test [1] is 389 ± 179 nM; in [2] it was more than 10000 nM; in test [3], 16.3 ± 9.1 nM; in test [4] it was 2460 ± 247 nM; in [5] it was 9340 nM; in test [6], 10.9 ± 2.6 nM. Further, the IC50 in test [7] is more than 10000 nM; in test [8], 3130 nM; in test [9], more than 10000 nM; in test [10] it was 11900 ± 1580 nM; in test [11], 2.65 ± 0.9 nM; in test [12], more than 100000 nM. Besides, the IC50 in [13] was determined as 4170 nM.
